The source of these data is paper PMC6839509, “Fluorescent probes towards selective cathepsin B detection and visualization in cancer cells and patient samples” (Chemical Science, 2019).

For test [1], the target named is T1, cathepsin B in cancer cell lysates (Homo sapiens, UniProt P07858).
T1 construct: we were able to label both cathepsin B active forms (single chain 29 kDa, and light chain 6 kDa); endogenous in cells; host or cells: human cancer cell lines (A-431, HCT-116, OVCAR-5, SK-OV-3, MDA-MB-231, U2-OS, PC-3, HeLa and others)
Put plainly: Cathepsin B activity in cancer cell lysates with Ac-Cha-Leu-Glu(O-Bzl)-Arg-ACC substrate, with inhibitors. In kind it is biochemical. The conditions noted are these: lysates of selected cell lines (HeLa, A431, U2-OS, HCT-116, SKOV-3, MDA-MB-231); inhibitor pre-incubated 15 min; 100 μM substrate. The method, then: Cell pellets from 50 000 cells were re-suspended in cathepsin assay buffer containing 0.5% Triton X-100 for cell lysis. Cell lysis was performed on ice for 30 min. After this time, cells were centrifuged at max speed for 5 min, and the supernatant (supplemented with 10 mM DTT) was used for the kinetic assay. In each assay 100 μM of cathepsin B selective substrate Ac-Cha-Leu-Glu(O-Bzl)-Arg-ACC was used, and the reaction progress was monitored for 30 min. In the experiments with inhibitors, cell lysate was pre-incubated with inhibitor for 15 min, followed by substrate addition and kinetic readout. Each measurement was performed three times and the substrate hydrolysis rate (RFU/s) in control (no inhibitor) was set to 100%, and other values were adjusted accordingly.

In test [2] the target is T2, human recombinant cathepsin B (Homo sapiens, UniProt P07858).
T2 construct: made in house
In words: Kinetic parameters for inhibition (kobs/I), pseudo-first order. In kind it is biochemical. The conditions noted are these: inhibitor at least 5-fold excess over cathepsin, 100 μM ACC substrate, pH 5.5, 37 °C, average of at least triplicate, S.D. below 20%. The method, then: (§1) All kinetic experiments were performed using a CLARIOStar (BMG LABTECH) plate reader operating in fluorescence kinetic mode using 96-well plates (Corning®, Costar®). ACC-labeled fluorescent substrates were screened at 355 nm (excitation) and 460 nm (emission) wavelengths (gain 650). The cathepsin assay buffer was composed of 100 mM sodium acetate, 100 mM sodium chloride, 10 mM DTT, 1 mM EDTA, pH 5.5. All kinetic studies were performed at 37 °C.
(§2) The kinetic parameters of inhibition of three irreversible Cy5/Cy7 labeled ABPs were determined for cathepsins B, L, V, S and K, and the inhibition parameters of CA-074 and CA-074Me were determined for cathepsins B and L. The kobs/I were measured under pseudo-first order reaction conditions. Individual cathepsins were mixed with various concentrations of ABP (at least 5-fold excess over cathepsins) and 100 μM ACC fluorescent substrate. Experiments were repeated at least in triplicate, and the results are presented as an average (S.D. were below 20%).

For test [3], the target named is T3, human recombinant cathepsin L (Homo sapiens, UniProt P07711).
T3 construct: with a 100 nM final concentration of each active cathepsin for 30 min; made in house
T3 sequence (P07711 114-333): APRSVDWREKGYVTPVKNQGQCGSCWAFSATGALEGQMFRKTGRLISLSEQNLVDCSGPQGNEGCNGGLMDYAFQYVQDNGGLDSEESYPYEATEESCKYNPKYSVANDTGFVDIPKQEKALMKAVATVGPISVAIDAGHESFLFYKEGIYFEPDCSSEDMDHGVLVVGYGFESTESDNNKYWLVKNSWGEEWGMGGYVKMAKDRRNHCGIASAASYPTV
Described as above. The conditions noted are these: inhibitor at least 5-fold excess over cathepsin, 100 μM ACC substrate, pH 5.5, 37 °C, average of at least triplicate, S.D. below 20%. It is filed as biochemical. The method, then:
as §1, §2

The target in test [4] is T4, cathepsin B in human cancer cell lines (Homo sapiens, UniProt P07858).
T4 construct: we were able to label both cathepsin B active forms (single chain 29 kDa, and light chain 6 kDa); endogenous in cells; host or cells: human cancer cell lines (A-431, HCT-116, OVCAR-5, SK-OV-3, MDA-MB-231, U2-OS, PC-3, HeLa and others)
In words: Detection of active cathepsin B in cancer cells using Cy5-labeled MP-CB-2 probe (SDS-PAGE, Western blot). In kind it is cell-based. Conditions: A-431 cells; E-64d 25 μM; 1 μM MP-CB-2. The method, then:
50 000 cells from fourteen adherent cancer cell lines were seeded into 12-well plates and allowed to attach overnight. In parallel, 50 000 cells from four non-adherent cancer cell lines were placed into 12-well plates and cultured overnight. The next day, MP-CB-2 ABP was added to the cells (1 μM final concentration) and incubated for various times (1, 4, 8, 24 hours). Next, cells were harvested, centrifuged at 500 × g for 5 min, cell pellets were washed with 1× DPBS, cells were centrifuged again at 500 × g for 5 min, and the supernatant was discarded. Finally, cell pellets were solubilized in 100 μL of 1× SDS/DTT and boiled for 5 min, cooled to room temperature and sonicated. Each sample (30 μL) was then subjected to SDS-PAGE analysis (4–12% Bis–Tris Plus 10-well gels, 200 V, 30 min), followed by protein transfer onto the membrane (0.2 μm nitrocellulose membrane, 10 V, 60 min). Ponceau S staining verified equal loading and transfer of proteins. Membranes were blocked in 2.5% BSA in TBS-T for 1 hour at room temperature. […] The images were then analyzed with the Image Studio software.
50 000 of selected cancer cells (A-431, HCT-116, OVCAR-5, SK-OV-3, MDA-MB-231, U2-OS, and PC-3) were seeded into 12-well plates and allowed to attach overnight. […] All images were analyzed with Image Studio software.

On to `CCCNC(=O)[C@H]1O[C@@H]1C(=O)N[C@H](C(=O)N1CCC[C@H]1C(=O)O)[C@@H](C)CC` [CA-074], for which the “inhibition of cathepsin B activity in cell lysates” value in test [1] is recorded as “completely depleted its catalytic activity”. The “kobs/I Cat-B” value in test [2] is listed as 42,000 M^-1s^-1. The “kobs/I Cat-L” value in test [3] is “n.i”.

Turning to `CCCNC(=O)[C@H]1O[C@@H]1C(=O)N[C@H](C(=O)N1CCC[C@H]1C(=O)OC)[C@@H](C)CC` [CA-074Me], the “kobs/I Cat-B” value in test [2] turned out to be 92 M⁻¹ s⁻¹. Further, in test [3], the “kobs/I Cat-L” value amounted to 152 M⁻¹ s⁻¹. Further, the “prevention of cathepsin B labeling by MP-CB-2 on pre-incubation with inhibitor” value in test [4] is listed as “completely prevented”.

Take `CCOC(=O)[C@H]1O[C@@H]1C(=O)N[C@@H](CC(C)C)C(=O)NCCC(C)C` [E-64d]: in test [4], the “prevention of cathepsin B labeling by MP-CB-2 on pre-incubation with inhibitor” value is listed as “completely prevented”.
